# Laboratory results taken from patent US6548543B1, “Remedies or preventives containing cyclopentenone compounds as the active ingredient” (Takara Shuzo Co., Ltd., priority 1998, dated 2003).
# Tests used:
# Meth A tumor cells = assay: Survival of mice given Meth A tumor cells, single dose; type: in vivo, BALB/c mouse; conditions: single dose 10 mg/kg intraperitoneal
# Description: (1) Mouse leukemia P-388 (1.1×10^6 cells/mouse) was intraperitoneally administered to a 7-weeks old female DBA/2 mouse. Immediately after the administration, a single dose of 10 mg/kg dipropionylcyclopentenone was intraperitoneally administered. On the other hand, saline was intraperitoneally administered to a control group in a similar manner. Survival number of mice, average days of survival and prolongation rate were calculated for 2 groups each consisting of 8 mice.
# Similarly, examination was carried out using a system of Meth A tumor cells: BALB/c mouse. As a result, the average days of survival were 13.4 days for the control group. The average days of survival were 16.9 days for the group administered with dipropionylcyclopentenone.
# [1] = system: 70-kDa heat shock protein; assay: Induction of 70-kDa heat shock protein in HL-60 cells (Western blot); type: cell-based; set-up: key to Degree of induction of 70-kDa heat shock protein: − means that no induction was observed; ± means that a slight induction was observed; + represents the induction level; ++: Increased number of + means increased induction; +++: Increased number of + means increased induction; conditions: HL-60, 6 hours
# Description: (1) 5 ml of RPMI 1640 medium containing 10% fetal calf serum and HL-60 (ATCC CCL-240) cells at a concentration of 2×10^5 cells/ml was placed in each well of a 6-well plate. The plate was incubated at 37° C. for 24 hours in the presence of 5% CO2. Dipropionylcyclopentenone, diisobutyrylcyclopentenone or di-2-hexenoylcyclopentenone at a final concentration of 0, 0.63, 1.3, 2.5, 5, 10 or 20 μM was then added thereto. The incubation was continued for additional 6 hours.
# After incubation, the cell number was counted. The cells were harvested by centrifugation, washed with PBS to prepare cells treated with one of the samples. Cells that were cultured in the same manner after heated at 45° C. for 10 minutes were also prepared.
# These treated cells were used for SDS-PAGE according to the method as described in Molecular Cloning [Cold Spring Harbor Laboratory Press (1989)]. The treated cells were suspended in SDS-PAGE Sample buffer at a concentration of 2.5×10^6 cells/ml. The cell suspensions were treated at 100° C. for 10 minutes. 5 μl each of the cell suspensions was applied to two SDS-PAGE gels (5% stacking gel, 10% separation gel) and electrophoresed. One of the gels was subjected to Coomassie staining. The other gel was blotted onto a polyvinylidene difluoride transfer membrane (Immobilon™, Millipore, Cat. #IPVH000-10). The membrane was blocked at 4° C. overnight using Block Ace (Dainippon Pharmaceutical, Cat. #UK-B25).
# The blocked membrane was reacted with a monoclonal antibody HSP72/73(Ab-1) (Oncogene Research Products, Cat. #HSP01), which specifically reacts with heat-inducible 70-kDa heat shock protein. The membrane was washed with TBS containing 0.05% Tween 20 followed by TBS. The membrane was then reacted with a peroxidase-conjugated secondary antibody HRP-Rabbit Anti-Mouse IgG (H+L) (Zymed Laboratories, Inc., Cat. #61-6520), and then washed as described above. The membrane reacted with the primary and secondary antibodies was reacted with a chemiluminol reagent Renaissance™ (Dupont NEN, Cat. #NEL-100). The membrane was then exposed to an X-ray film to confirm the induction of 70-kDa heat shock protein.
# [2] = system: tumor necrosis factor (TNF)-α; assay: Endotoxin shock model, serum TNF-α after LPS; type: in vivo, CDF1 mice
# Description: (1) A model for endotoxin shock was constructed using CDF1 mice (8 weeks old, female, purchased from Japan SLC). Distilled water (control), or 10 mg/kg of diisopropionylcyclopentenone or diisobutyrylcyclopentenone was subcutaneously administered to a mouse. 20 μg of lipopolysaccharide (LPS; Sigma) was intraperitoneally administered to each mouse 30 minutes after the administration. Blood was collected from the mouse 1.5 hours after the administration with LPS. The amount of tumor necrosis factor (TNF)-α in a serum separated from the collected blood was measured using a commercially available ELISA kit (R&D). Each group consisted of 4 mice.
# (2) A model for endotoxin shock was constructed by intraperitoneally administering 20 μg of LPS to a CDF1 mouse (8 weeks old, female). 30 or 100 mg/kg of dipropionylcyclopentenone or diisobutyrylcyclopentenone was orally administered 30 minutes before the administration with LPS. Blood was collected from the mouse 1.5 hours after the administration with LPS. The amount of TNF-α in a serum separated from the collected blood was measured using an ELISA kit. Each group consisted of 4 mice.
# [3] = system: delayed hypersensitivity pedal edema; assay: Delayed hypersensitivity (DTH) with sheep erythrocytes; type: in vivo, C57BL/6 mice; conditions: once a day for 3 days
# Description: C57BL/6 mice (male, 7 weeks old, weighing about 25 g) were purchased from Japan SLC and pre-bred for 1 week before using in experiments.
# Sheep erythrocytes (Shimizu Laboratory Supplies) as raising antigens were washed three times with saline (Otsuka Pharmaceutical) and suspended in saline at a concentration of 1×10^9 cells/ml. 200 μl of the suspension was intraperitoneally injected into the mouse for sensitization with the antigen. 40 μl of similarly prepared antigen was injected to the sole of right paw 5 days after the sensitization for antigenic induction to induce pedal edema.
# Dipropionylcyclopentenone dissolved in saline at a varying concentration was intraperitoneally or orally administered to 5 mice per group once a day for 3 days from the day of sensitization with the antigen. The volume of the right foot of the mouse was measured using an instrument for measuring pedal volume (Ugo Basile) 2 days after the antigenic induction and used as an index of DTH. The measurements were expressed as the rate of increase calculated according to the following equation based on the volume of the right foot of each mouse measured before the antigenic induction.
# Rate of increase=(volume of right foot after antigenic induction−volume of right foot before antigenic induction)/volume of right foot before antigenic induction
smiles,measurement,setting,value
CCC(=O)OC1C=CC(=O)C1OC(=O)CC (stereo not shown),Average days of survival,Meth A tumor cells,16.9 days
same,Prolongation rate,Meth A tumor cells,126.2%
same,Degree of induction of 70-kDa heat shock protein,[1]; 0.63 μM,−
same,Degree of induction of 70-kDa heat shock protein,[1]; 1.3 μM,±
same,Degree of induction of 70-kDa heat shock protein,[1]; 2.5 μM,+
same,Degree of induction of 70-kDa heat shock protein,[1]; 5 μM,+++
same,Degree of induction of 70-kDa heat shock protein,[1]; 10 μM,++
same,Degree of induction of 70-kDa heat shock protein,[1]; 20 μM,++
same,TNF-α production compared with control group (statement),[2]; 10 mg/kg subcutaneous,significantly suppressed
same,Amount of TNF mean ± SE,"[2]; 10 mg/kg subcutaneous 30 minutes before LPS, serum 1.5 hours after LPS",4.61 ± 0.57 ng/mL
same,TNF mean ± SE,"[2]; 30 mg/kg oral 30 minutes before LPS, serum 1.5 hours after LPS",2.95 ± 0.14 ng/mL
same,TNF mean ± SE,"[2]; 100 mg/kg oral 30 minutes before LPS, serum 1.5 hours after LPS",1.26 ± 0.15 ng/mL
same,TNF production compared with control group (statement),[2]; oral 30 or 100 mg/kg,suppressed the TNF production in a dose-dependent manner
same,"Suppression of edema in foot, DTH (FIG. 6)",[3]; 1 mg/kg intraperitoneal,Tendency to suppress the edema in the foot
same,"Suppression of edema in foot, DTH (FIG. 6)",[3]; 10 mg/kg intraperitoneal,significant suppression
same,"Suppression of edema in foot, DTH (FIG. 6)",[3]; 30 mg/kg oral,significant suppression
